Earlier results as cited in patent US7915306B2, “Macrocyclic compounds useful as pharmaceuticals” (Eisai Co., Ltd., priority 2002, dated 2011).
Read-outs that look alike come from different tables or passages of the source.

Assays:
[1] = human plasma
[2] = mouse plasma

COc1cc(O)c2c(c1)/C=C/C[C@H](O)[C@H](O)C(=O)/C=C\C[C@H](C)OC2=O [F152]
inhibition of Map/Erk kinase (MEK) (Map/Erk kinase (MEK)): inhibit
biological stability (enone isomerization) [1]: susceptible to enone isomerization
biological stability (enone isomerization) [2]: susceptible to enone isomerization
